Earlier results as cited in patent US20020187165A1, “Composition for female sexual arousal” (Joseph F. Long, priority 2001, published 2002).

Conditions: following oral administration

time of peak plasma concentrations: 1 to 2 h
Compound: Cn1cc([S+](C)[O-])c(=O)c2ccc(F)cc21 (stereo not shown) [flosequinan]
